Publication PMC9731866, “Structures of a constitutively active mutant of human IDH3 reveal new insights into the mechanisms of allosteric activation and the catalytic reaction” (The Journal of Biological Chemistry, 2022)

How the values were obtained:
Assay type in all cases: binding
[1] = molecular target: T1, αβ heterodimer of HsIDH3 (mutant form αMβ) (Homo sapiens, UniProt O43837+P50213, P50213:Q166A); test: X-ray crystal structure, […] Å; details: Mg2+ at active site; ADP at pseudo-allosteric site of beta subunit
T1 construct: gene IDH3A; coexpressed alpha and beta-TEV-His6 (pQlinkN), E. coli BL21(DE3) Codon-Plus, His6 tag cleaved with TEV; 1:1 heterodimer, mutant is heterotetramer (αMβ)2 of 131-149 kDa

[2] = molecular target: T1, αβ heterodimer of HsIDH3 (mutant form αMβ); test: biolayer interferometry, biotinylated protein on streptavidin sensor
[3] = molecular target: T2, αγ heterodimer of HsIDH3 (mutant form αMγ) (Homo sapiens, UniProt P50213+P51553, P50213:Q166A); test: X-ray crystal structure, […] Å; details: allosteric site of gamma subunit
T2 construct: gene IDH3A; coexpressed alpha and gamma-TEV-His6 (pQlinkN), E. coli BL21(DE3) Codon-Plus, His6 tag cleaved with TEV; 1:1 heterodimer, mutant is heterotetramer (αMγ)2 of 131-149 kDa
T2 sequence (P50213 28-366 Q166A): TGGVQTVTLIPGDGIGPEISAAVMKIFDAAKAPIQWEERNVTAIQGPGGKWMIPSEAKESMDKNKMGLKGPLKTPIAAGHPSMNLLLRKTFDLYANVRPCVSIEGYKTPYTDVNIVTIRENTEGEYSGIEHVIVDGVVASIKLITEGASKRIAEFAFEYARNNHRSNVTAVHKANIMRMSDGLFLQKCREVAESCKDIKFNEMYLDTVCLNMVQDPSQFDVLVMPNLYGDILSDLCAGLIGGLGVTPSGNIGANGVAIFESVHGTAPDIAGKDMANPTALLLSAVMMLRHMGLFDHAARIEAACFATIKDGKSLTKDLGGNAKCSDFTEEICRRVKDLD
T2 sequence (P51553 40-393): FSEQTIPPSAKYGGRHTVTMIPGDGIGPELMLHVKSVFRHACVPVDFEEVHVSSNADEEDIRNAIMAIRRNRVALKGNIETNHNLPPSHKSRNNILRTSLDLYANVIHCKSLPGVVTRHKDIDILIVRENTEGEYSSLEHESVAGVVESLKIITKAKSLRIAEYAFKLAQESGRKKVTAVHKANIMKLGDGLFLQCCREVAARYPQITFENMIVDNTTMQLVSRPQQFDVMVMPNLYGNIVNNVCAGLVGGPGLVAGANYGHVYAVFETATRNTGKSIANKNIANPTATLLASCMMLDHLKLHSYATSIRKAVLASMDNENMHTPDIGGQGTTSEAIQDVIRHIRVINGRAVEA

T1 sequence (O43837 35-385 limits assumed, one chain of several): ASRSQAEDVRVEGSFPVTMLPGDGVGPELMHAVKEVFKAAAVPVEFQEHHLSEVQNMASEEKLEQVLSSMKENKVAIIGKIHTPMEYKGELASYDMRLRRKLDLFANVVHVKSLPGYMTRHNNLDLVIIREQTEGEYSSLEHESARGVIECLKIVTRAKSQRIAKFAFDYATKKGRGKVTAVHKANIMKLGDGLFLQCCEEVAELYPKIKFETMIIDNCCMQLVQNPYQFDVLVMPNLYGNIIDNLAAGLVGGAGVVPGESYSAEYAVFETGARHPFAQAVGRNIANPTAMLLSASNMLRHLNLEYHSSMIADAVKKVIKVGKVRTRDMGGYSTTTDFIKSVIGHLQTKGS

Kd [2]	SMILES	X-ray crystal structure, 2.70 Å [1]	X-ray crystal structure, 2.50 Å [3]
522 ± 10 µM	Nc1ncnc2c1ncn2[C@@H]1O[C@H](COP(=O)(O)OP(=O)(O)O)[C@@H](O)[C@H]1O [ADP]	an ADP bound at the pseudo-allosteric site in the β subunit	–
–	O=C(O)CC(O)(CC(=O)O)C(=O)O [CIT]	–	there is a CIT bound at the allosteric site in the γ subunit
